Measured values published in publication PMC7771553 (Journal of medicinal chemistry, 2017).
“Also recorded” adds a separate entry of the source. Read-outs that look alike come from different tables or passages of the source.

Legend:
[1] = Cell-absent control: nonspecific binding with the cell culture plate; assay type: in vitro ADME; details: input 10, 20, 2, 20 μM for 1–4
MDA-MB-231 cells [2] = details: for dose dependence of the cellular uptake: 10% FBS (1 and 2) or 5% FBS (3 and 4); for intracellular concentration relative to the input concentration: 24 h, volume of one million cells about 5.5 μL; for incubation time to maximum intracellular concentration: MDA-MB-231 cells; for intracellular moles relative to that of 4: 5% FBS
MDA-MB-231 cells [3] = assay type: in vitro ADME; details: for nonspecific binding, 4 °C incubation (decrease of intracellular concentration): 6 h, compared with direct solvent extraction
[4] = Parallel artificial membrane permeability assay; assay type: in vitro ADME; details: PAMPA
bromodomains = details: cited from earlier work
MDA-MB-231 cells [5] = details: MDA-MB-231, 24 h; input 10, 20, 2, 20 μM for 1–4
[6] = Stability in DMEM media with or without 10% FBS; assay type: physicochemical; details: 72 h, negligible difference between samples with and without serum

Structure (SMILES) | nonspecific binding to the plates, percent of input concentration [1] | dose dependence of the cellular uptake (MDA-MB-231 cells [2]; 6 h) | nonspecific binding, 4 °C incubation (decrease of intracellular concentration) (MDA-MB-231 cells [3]) | inhibitory activities in cell-based NanoBRET assays (bromodomains) | intracellular concentration relative to the input concentration (MDA-MB-231 cells [2]; input 10, 20, 2, 20 μM for 1–4) | incubation time to maximum intracellular concentration (MDA-MB-231 cells [2]) | further results
CC(=O)c1cc(-c2cc(C(=O)NC3CC3)ccc2C)c2ncccn12 [Compound 1, TP-472, reference compound] | 1% | first order | 77% | submicromolar | – | – | permeability through the artificial membrane [4]: good permeability
Cc1cc2c(cc1N1C(=O)c3cccc4c(CCCO)ccc(c34)C1=O)n(C)c(=O)n2C [Compound 2, BAY-299, reference compound] | – | first order | – | submicromolar | – | – | increase in inhibitor cellular uptake (MDA-MB-231 cells [2]; 10-time increase in the input concentration (20–200 μM), 6 h): 13 times; cellular uptake (percent of the compound accumulated in the cells) (MDA-MB-231 cells [5]): < 1%
Cl.Cl.O=C(Nc1ccc(O[C@H]2CCNC2)c(-c2ccc(F)cc2)c1)c1ccc(O[C@H]2CCNC2)c(-c2ccc(F)c(F)c2)c1 [Compound 3] | – | logarithmic pattern (saturation kinetics) | 15% | – | about 600 times | 3 to 6 h | cell permeability relative to 4 (MDA-MB-231 cells [2]; equal input concentrations compared (Figure 6)): 1.7 times; intracellular moles relative to that of 4 (MDA-MB-231 cells [2]; input concentration 2 μM, 6 h): 1.9 times; intracellular moles relative to that of 4 (MDA-MB-231 cells [2]; input concentration 20 μM, 6 h): 1.5 times
Cl.Cl.O=C(c1cc(F)cc(N2CCNCC2)c1)N1CCN(C(=O)c2ccc(O[C@H]3CCNC3)c(C3CCCCC3)c2)CC1 [Compound 4] | 1% | plateaued when the input concentration was increased from 20 to 200 μM; also recorded: saturated at input concentrations >20 μM | 4% | – | ~65 times | 3 to 6 h | rate of decrease of intracellular moles (MDA-MB-231 cells [2]; input 20 μM, over 72 h, first order): about 85.5 ± 8.2 pmol/(million cells × h); time dependence of intracellular moles (metabolic stability in cells) (MDA-MB-231 cells [2]; over 72 h, input 10, 20, 2, 20 μM for 1–4): less stable; compound remaining (percent of the initial concentration) [6]: about 85%
CCOC(=O)CCCn1c2ccccc2c2nc3nonc3nc21 [Compound 8] | – | – | – | – | – | – | cell-bound inhibitors at 4 °C (MDA-MB-231 cells [3]): little or no nonspecific binding
